Assay results taken from patent US20180104224A1, “PHARMACEUTICAL COMPOSITIONS COMPRISING ANTIBACTERIAL AGENTS” (priority 2014, published 2018).

Assays:
[1] = test system: highly resistant strains of Pseudomonas aeruginosa; test: MIC determination, all strains; format: cell-based; conditions: highly resistant strains of P. aeruginosa
Protocol: (§1) The antibacterial activity of combinations according to the invention against resistant bacterial strains was investigated. Minimum Inhibitory Concentration (MIC) determination for the combinations according to invention was carried out in Muller Hinton Agar (MHA) (BD, USA) according to Clinical and Laboratory Standards Institute (CLSI) recommendations, (Clinical and Laboratory Standards Institute (CLSI), Performance Standards for Antimicrobial Susceptibility Testing, 20th Informational Supplement, M 100-S20, Volume 30, No. 1, 2010). In short, the test strains were adjusted to deliver about 10^4 CFU per spot with a multipoint inoculator (Applied Quality Services, UK). The plates were pored with MHA containing doubling concentration range of the test combinations according to invention. The plates were inoculated and were incubated at 35° C. for 18 hours.
The results on antibacterial activity of a carbapenem antibacterial agent selected from imipenem, meropenem, ertapenem and doripenem alone and in combination with Compound A or Compound B, against highly resistant strains of Pseudomonas aeruginosa are given in Table 1. […] For example, P. aeruginosa 2779 harbors resistance due to increased AmpC expression (300 times) and increased efflux; P. aeruginosa 1405 harbors resistance due to increased AmpC expression (600 times), reduced OprD expression and increased efflux; P. aeruginosa R 70 harbors resistance due to reduced OprD expression and increased efflux; and P. aeruginosa J 154 harbors resistance due to reduced OprD.

[2] = test system: Pseudomonas aeruginosa R70; test: Time kill study; format: cell-based; conditions: P. aeruginosa R70; for effect on bacterial counts through out the duration of the study (in words): when used alone
Protocol: (§2) The synergistic killing effect of the combinations according to invention was studied by performing time kill studies. In a typical time kill study, the freshly grown cultures were diluted to the required cell density (initial starting inoculum) in Cation adjusted Muller Hinton broth medium (BD, USA). The antibacterial agents (either alone or in combination) at the required concentrations were added into the culture-containing medium. The samples were incubated under shaking condition (120 rpm) at 37° C. Enumeration of viable bacterial count was done every 2 hour by diluting in normal saline and plating on to the Tryptic Soya Agar plates (BD, USA). The plates were incubated for 24 hours to arrive at the viable bacterial count. The results are expressed in terms of Log10 CFU per ml. In general, the decrease of 1 Log10 CFU/ml, corresponds to 90% killing of bacteria.

[3] = test system: Pseudomonas aeruginosa 1405; test: Time kill study; format: cell-based; conditions: P. aeruginosa 1405; for effect on bacterial counts through out the duration of the study (in words): when used alone
Protocol: as §2

P. aeruginosa R 70 = test: MIC determination in Muller Hinton Agar (CLSI);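 as to MIC (mcg/ml) of carbapenem in presence of [A] at 4 mcg/ml: MIC read as lowest concentration giving complete growth inhibition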;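 as to MIC (mcg/ml) of carbapenem in presence of [B] at 4 mcg/ml: MIC read as lowest concentration giving complete growth inhibition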; format: cell-based, Pseudomonas aeruginosa; conditions: for MIC: Pseudomonas aeruginosa, R70, 18 h, agent alone, P. aeruginosa R 70 [Reduced OprD + increased efflux]
Protocol: as §1

P. aeruginosa 2779 = test: MIC determination in Muller Hinton Agar (CLSI); format: cell-based, Pseudomonas aeruginosa;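 also: MIC read as lowest concentration giving complete growth inhibition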
Protocol: as §1

P. aeruginosa J 154 = test: MIC determination in Muller Hinton Agar (CLSI); format: cell-based, Pseudomonas aeruginosa; conditions: for MIC: Pseudomonas aeruginosa, J154, agent alone, P. aeruginosa J 154 [Reduced OprD]
Protocol: as §1

P. aeruginosa 1405 = test: MIC determination in Muller Hinton Agar (CLSI); format: cell-based, Pseudomonas aeruginosa;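 also: MIC read as lowest concentration giving complete growth inhibition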
Protocol: as §1

[4] = in presence of Compound A at 4 mcg/ml
[5] = in presence of Compound B at 4 mcg/ml

| Compound | MIC values (in words) ([1]; when used alone) | effect on bacterial counts through out the duration of the study (in words) [2] | Bacterial count (Log10 CFU/ml) 0 hour ([2]; Table 5, single agent 4 mcg/ml) [Log10 CFU/ml] | Bacterial count (Log10 CFU/ml) 2 hour ([2]; Table 5, single agent 4 mcg/ml) [Log10 CFU/ml] | Bacterial count (Log10 CFU/ml) 4 hours ([2]; Table 5, single agent 4 mcg/ml) [Log10 CFU/ml] | Bacterial count (Log10 CFU/ml) 6 hour ([2]; Table 5, single agent 4 mcg/ml) [Log10 CFU/ml] | effect on bacterial counts through out the duration of the study (in words) [3] | Bacterial count (Log10 CFU/ml) 0 hour ([3]; Table 3, single agent 4 mcg/ml) [Log10 CFU/ml] | Bacterial count (Log10 CFU/ml) 2 hour ([3]; Table 3, single agent 4 mcg/ml) [Log10 CFU/ml] | Bacterial count (Log10 CFU/ml) 4 hour ([3]; Table 3, single agent 4 mcg/ml) [Log10 CFU/ml] | Bacterial count (Log10 CFU/ml) 6 hour ([3]; Table 3, single agent 4 mcg/ml) [Log10 CFU/ml] | MIC (P. aeruginosa R 70) [µg/mL] | MIC (P. aeruginosa J 154) [µg/mL] | other results |
| --- | --- | --- | --- | --- | --- | --- | --- | --- | --- | --- | --- | --- | --- | --- |
| C[C@@H](O)[C@H]1C(=O)N2C(C(=O)O)=C(S[C@@H]3CN[C@H](C(=O)N(C)C)C3)[C@H](C)[C@H]12 [Meropenem, meropenem] | higher MIC values | failed to reduce the bacterial counts | 6.44 | 6.14 | 7.07 | 7.3 | failed to reduce the bacterial counts | 6.81 | 6.8 | 7.0 | 7.3 | > 32 | 16 | MIC values (in words) ([1]; in presence of Compound A or Compound B): decreased significantly; Bacterial count (Log10 CFU/ml) 0 hour ([2]; Table 4, single agent 4 mcg/ml): 6.62 Log10 CFU/ml; Bacterial count (Log10 CFU/ml) 2 hour ([2]; Table 4, single agent 4 mcg/ml): 7.07 Log10 CFU/ml; Bacterial count (Log10 CFU/ml) 4 hour ([2]; Table 4, single agent 4 mcg/ml, 4 hour): 6.84 Log10 CFU/ml; Bacterial count (Log10 CFU/ml) 6 hour ([2]; Table 4, single agent 4 mcg/ml): 8.36 Log10 CFU/ml; Bacterial count (Log10 CFU/ml) 0 hour ([3]; Table 2, single agent 4 mcg/ml): 6.84 Log10 CFU/ml; Bacterial count (Log10 CFU/ml) 2 hour ([3]; Table 2, single agent 4 mcg/ml): 5.95 Log10 CFU/ml; Bacterial count (Log10 CFU/ml) 4 hour ([3]; Table 2, single agent 4 mcg/ml): 6.89 Log10 CFU/ml; Bacterial count (Log10 CFU/ml) 6 hour ([3]; Table 2, single agent 4 mcg/ml): 7.02 Log10 CFU/ml; MIC (mcg/ml) of carbapenem in presence of [A] at 4 mcg/ml (P. aeruginosa R 70; in presence of Compound A at 4 mcg/ml, P. aeruginosa R 70): 16 µg/mL; MIC (mcg/ml) of carbapenem in presence of [B] at 4 mcg/ml (P. aeruginosa R 70; in presence of Compound B at 4 mcg/ml, P. aeruginosa R 70): ≤0.12 µg/mL; MIC (mcg/ml) of carbapenem in presence of [A] at 4 mcg/ml (P. aeruginosa 2779; [4]): 0.12 µg/mL; MIC (mcg/ml) of carbapenem in presence of [B] at 4 mcg/ml (P. aeruginosa 2779; [5]): 0.12 µg/mL; MIC (mcg/ml) of carbapenem in presence of [A] at 4 mcg/ml (P. aeruginosa J 154; in presence of Compound A at 4 mcg/ml, P. aeruginosa J 154): 8 µg/mL; MIC (mcg/ml) of carbapenem in presence of [B] at 4 mcg/ml (P. aeruginosa J 154; in presence of Compound B at 4 mcg/ml, P. aeruginosa J 154): <0.25 µg/mL; MIC (mcg/ml) of carbapenem in presence of [A] at 4 mcg/ml (P. aeruginosa 1405; [4]): 4 µg/mL; MIC (mcg/ml) of carbapenem in presence of [B] at 4 mcg/ml (P. aeruginosa 1405; [5]): 0.12 µg/mL |
| O=C(NNC(=O)[C@@H]1CC[C@@H]2CN1C(=O)N2OS(=O)(=O)O)[C@@H]1CCNC1 [Compound B, trans-sulfuric acid mono-[2-(N′-[(R)-pyrrolidin-3-carbonyl]-hydrazinocarbonyl)-7-oxo-1,6-diaza-bicyclo[3.2.1]oct-6-yl]ester] | higher MIC values | failed to reduce the bacterial counts | 6.44 | 6.2 | 6.4 | 6.0 | failed to reduce the bacterial counts | 6.81 | 6.54 | 6.65 | 6.7 | 2 | 8 | Bacterial count (Log10 CFU/ml) 0 hour ([2]; Table 5, single agent 2 mcg/ml): 6.44 Log10 CFU/ml; Bacterial count (Log10 CFU/ml) 2 hour ([2]; Table 5, single agent 2 mcg/ml): 7.11 Log10 CFU/ml; Bacterial count (Log10 CFU/ml) 4 hours ([2]; Table 5, single agent 2 mcg/ml): 7.3 Log10 CFU/ml; Bacterial count (Log10 CFU/ml) 6 hour ([2]; Table 5, single agent 2 mcg/ml): 7.6 Log10 CFU/ml; Bacterial count (Log10 CFU/ml) 0 hour ([3]; Table 3, single agent 2 mcg/ml): 6.81 Log10 CFU/ml; Bacterial count (Log10 CFU/ml) 2 hour ([3]; Table 3, single agent 2 mcg/ml): 6.48 Log10 CFU/ml; Bacterial count (Log10 CFU/ml) 4 hour ([3]; Table 3, single agent 2 mcg/ml): 7.6 Log10 CFU/ml; Bacterial count (Log10 CFU/ml) 6 hour ([3]; Table 3, single agent 2 mcg/ml): 7.5 Log10 CFU/ml |
